Experimental findings from ChEMBL document CHEMBL1156680, “3D-QSAR studies of triazafluorenone inhibitors of metabotropic glutamate receptor subtype 1” (Eur J Med Chem, 2008) are described below.

Chain of Metabotropic glutamate receptor 1 (P23385 whole entry): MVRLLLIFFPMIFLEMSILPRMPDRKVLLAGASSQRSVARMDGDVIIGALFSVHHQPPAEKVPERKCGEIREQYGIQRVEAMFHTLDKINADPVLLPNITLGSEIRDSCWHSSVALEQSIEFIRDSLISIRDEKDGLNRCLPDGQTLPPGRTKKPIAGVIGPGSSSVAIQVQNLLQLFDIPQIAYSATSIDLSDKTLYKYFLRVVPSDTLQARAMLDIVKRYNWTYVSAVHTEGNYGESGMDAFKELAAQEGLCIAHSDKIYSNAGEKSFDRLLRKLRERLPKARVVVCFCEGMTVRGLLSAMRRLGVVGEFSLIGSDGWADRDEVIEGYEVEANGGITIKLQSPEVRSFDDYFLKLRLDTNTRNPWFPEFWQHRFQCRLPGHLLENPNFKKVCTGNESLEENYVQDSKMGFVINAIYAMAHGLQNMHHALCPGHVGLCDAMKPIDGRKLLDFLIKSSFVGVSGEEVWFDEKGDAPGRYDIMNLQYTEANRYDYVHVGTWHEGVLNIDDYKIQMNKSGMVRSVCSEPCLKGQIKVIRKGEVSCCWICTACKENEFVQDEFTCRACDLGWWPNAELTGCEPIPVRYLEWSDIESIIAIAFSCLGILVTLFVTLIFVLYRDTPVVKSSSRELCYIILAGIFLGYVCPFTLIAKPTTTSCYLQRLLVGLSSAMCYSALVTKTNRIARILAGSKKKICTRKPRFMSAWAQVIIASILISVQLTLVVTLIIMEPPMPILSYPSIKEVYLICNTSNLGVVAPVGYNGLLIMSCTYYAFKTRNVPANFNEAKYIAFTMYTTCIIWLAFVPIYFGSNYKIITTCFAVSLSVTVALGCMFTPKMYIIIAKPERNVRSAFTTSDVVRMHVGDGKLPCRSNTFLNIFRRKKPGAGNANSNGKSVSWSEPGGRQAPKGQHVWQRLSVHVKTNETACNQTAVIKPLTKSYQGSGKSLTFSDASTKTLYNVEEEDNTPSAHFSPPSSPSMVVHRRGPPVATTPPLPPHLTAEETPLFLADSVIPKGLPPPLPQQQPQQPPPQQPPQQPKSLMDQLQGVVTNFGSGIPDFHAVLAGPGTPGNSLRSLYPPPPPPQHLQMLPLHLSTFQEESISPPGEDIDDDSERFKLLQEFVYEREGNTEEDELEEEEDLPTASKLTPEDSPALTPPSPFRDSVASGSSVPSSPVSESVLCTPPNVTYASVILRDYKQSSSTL

The first experiment has as its target Metabotropic glutamate receptor 1 (Rattus norvegicus, UniProt P23385). As to the kind of experiment: Inhibition of rat mGluR1. The settings on record: read-out: IC50.
With `C[N+](C)([O-])c1ccnc2sc3c(=O)n(C4CCCCCC4)cnc3c12`, the IC50 amounted to 167 nM. Consider `CCc1ccc(-n2cnc3c(sc4nccc(N5CCC5)c43)c2=O)cc1`, for which the IC50 was 113 nM. `CCc1ccc(-n2c(C)nc3c(sc4nccc(N(C)C)c43)c2=O)cc1`: the IC50 turned out to be 44 nM. The same measure, in the same setting: to `CCc1ccc(-n2c(CC)nc3c(sc4nccc(N(C)C)c43)c2=O)cc1` belongs 84 nM; to `CC1CCCC(n2cnc3c(sc4nccc(N(C)C)c43)c2=O)C1` (stereo unspecified), 482 nM; to `CCc1cccc(-n2cnc3c(sc4nccc(N(C)C)c43)c2=O)c1`, 9 nM. On the same count and under the same terms, to `CN(C)c1ccnc2sc3c(=O)n(-c4ccc(Br)cc4)cnc3c12` belongs 4 nM; to `CCc1ccc(-n2cnc3c(sc4nccc(NCC(F)(F)F)c43)c2=O)cc1`, 99 nM; to `Cc1ccc(-n2cnc3c(sc4nccc(N(C)C)c43)c2=O)cc1`, 5 nM. Same read-out and setting: to `CN(C)c1ccnc2sc3c(=O)n(CC4CCCCC4)cnc3c12` belongs 139 nM; to `CC(C)c1ccc(-n2cnc3c(sc4nccc(N(C)C)c43)c2=O)cc1`, 407 nM; to `CCC(CC)n1cnc2c(sc3nccc(N(C)C)c32)c1=O`, 335 nM.

Turning to `CN(C)c1ccnc2sc3c(=O)n(-c4ccc(C(C)(C)C)cc4)cnc3c12`, the IC50 came out at 8500 nM. On the same count and under the same terms, to `CCc1ccc(-n2cnc3c(sc4nccc(N(C)C)c43)c2=O)cc1` belongs 3 nM; to `CN(C)c1ccnc2sc3c(=O)n(C4CCCC4)cnc3c12`, 5 nM. `CN(C)c1ccnc2sc3c(=O)n(-c4ccc(F)cc4)cnc3c12`: the IC50 is 23 nM. The same measure, in the same setting: to `CN(C)c1ccnc2sc3c(=O)n(-c4ccc5cc[nH]c5c4)cnc3c12` belongs 122 nM; to `CCCCc1nc2c(sc3nccc(N(C)C)c32)c(=O)n1-c1ccc(CC)cc1`, 101 nM. On the same count and under the same terms, in the case of `CCc1ccc(-n2cnc3c(sc4nccc(NC5CC5)c43)c2=O)cc1` it was 41 nM; in that of `CCc1ccc(-n2cnc3c(sc4nccc(N(C)CC)c43)c2=O)cc1`, 37 nM; in that of `CN(C)c1ccnc2sc3c(=O)n(C4CCC4)cnc3c12`, 167 nM. Same read-out and setting: in the case of `CN(C)c1ccnc2sc3c(=O)n(Cc4ccccc4)cnc3c12` it was 281 nM; in that of `CN(C)c1ccnc2sc3c(=O)n(-c4ccccc4O)cnc3c12`, 50 nM; in that of `Cc1ccc(-n2cnc3c(sc4nccc(N(C)C)c43)c2=O)c(C)c1`, 17 nM. For the compound `CCc1ccccc1-n1cnc2c(sc3nccc(N(C)C)c32)c1=O`, the IC50 worked out at 251 nM. For `CN(C)c1ccnc2sc3c(=O)n(-c4ccccc4)cnc3c12`, the IC50 was determined as 20 nM. On the same count and under the same terms, to `CCc1ccc(-n2cnc3c(sc4nccc([N+](C)(C)[O-])c43)c2=O)cc1` belongs 306 nM; to `CC1CCC(n2cnc3c(sc4nccc(N(C)C)c43)c2=O)CC1` (stereo unspecified), 140 nM. Regarding `CCc1ccc(-n2cnc3c(sc4nccc(NCC#N)c43)c2=O)cc1`, the IC50 worked out at 49 nM. Still for that read-out and setting: to `CN(C)c1ccnc2sc3c(=O)n(-c4ccc(C(F)(F)F)cc4)cnc3c12` belongs 32 nM; to `CCc1ccc(-n2cnc3c(sc4nccc(N(C)CCOC)c43)c2=O)cc1`, 71 nM; to `COc1ccc(-n2cnc3c(sc4nccc(N(C)C)c43)c2=O)cn1`, 39 nM. Same read-out and setting: in the case of `CN(C)c1ccnc2sc3c(=O)n(CC4CCCC4)cnc3c12` it was 26 nM. Still for that read-out and setting: in the case of `CN(C)c1ccnc2sc3c(=O)n(C4CCCCCC4)cnc3c12` it was 1 nM; in that of `CCc1ccc(-n2cnc3c(sc4nccc(NC)c43)c2=O)cc1`, 98 nM; in that of `CN(C)c1ccnc2sc3c(=O)n(C45CC6CC(CC(C6)C4)C5)cnc3c12`, 76 nM. In the case of `CCCc1ccc(-n2cnc3c(sc4nccc(N(C)C)c43)c2=O)cc1`, the IC50 amounted to 180 nM. Same read-out and setting: in the case of `CN(C)c1ccnc2sc3c(=O)n(-c4ccc(Cl)cc4)cnc3c12` it was 16 nM; in that of `CN(C)c1ccnc2sc3c(=O)n(N4CCCCCC4)cnc3c12`, 10 nM; in that of `CN(C)c1ccnc2sc3c(=O)n(C4CC4)cnc3c12`, 632 nM. On the same count and under the same terms, in the case of `CN(C)c1ccnc2sc3c(=O)n(-c4ccc(C5CC5)cc4)cnc3c12` it was 87 nM; in that of `CN(C)c1ccnc2sc3c(=O)n(-c4ccc(Cl)cc4Cl)cnc3c12`, 45 nM. As to `CC1CCCCC1n1cnc2c(sc3nccc(N(C)C)c32)c1=O` (stereo unspecified), the IC50 is 130 nM.

As to `CN(C)c1ccnc2sc3c(=O)n(C4CCCCC4)cnc3c12`, the IC50 was 50 nM. Same read-out and setting: to `CN(C)c1ccnc2sc3c(=O)n(C4CCCCCCC4)cnc3c12` belongs 13 nM.

The experiment is the same for the next values; noted with them: read-out: pIC50 (converted).
For the compound `CCc1ccc(-n2cnc3c(sc4nccc(NCC#N)c43)c2=O)cc1`, the IC50 is 42.7 nM.
